This experiment addresses Pim-1 (Homo sapiens (Human), UniProt P11309). Kind of experiment: Pim kinase binding activity assay (Example 901), PIM-1 enzyme, Caliper microfluidic peptide phosphorylation. In kind it is biochemical. The following applies: 20 pM PIM-1, 10 μM ATP, 1 μM FAM-peptide, 90 minutes at room temperature. The method in brief: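 The readout was microfluidic mobility-shift separation of a FAM-tagged Pim-specific peptide, excited at 488 nm and read at 530 nm, with Ki calculated from percent conversion. Reactions held 20 pM PIM-1, 1 μM peptide and 10 μM ATP in pH 7.2 HEPES/MgCl2/DTT buffer, ran 90 min at room temperature and were stopped with EDTA.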
Chain of Pim-1 (P11309 whole entry): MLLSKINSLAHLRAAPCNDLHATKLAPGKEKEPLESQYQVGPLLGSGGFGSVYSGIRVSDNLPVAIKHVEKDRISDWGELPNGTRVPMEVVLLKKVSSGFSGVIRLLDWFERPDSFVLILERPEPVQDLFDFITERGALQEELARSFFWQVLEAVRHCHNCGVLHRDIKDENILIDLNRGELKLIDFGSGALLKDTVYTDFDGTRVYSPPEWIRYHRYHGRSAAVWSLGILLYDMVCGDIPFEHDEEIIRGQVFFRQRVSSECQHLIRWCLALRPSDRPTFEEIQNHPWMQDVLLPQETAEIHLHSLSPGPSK
`CCn1cc(-c2cc3c(-c4cccc(N5CCC[C@H](N)C5)n4)n[nH]c3cn2)cn1` [Example 445, (S)-1-(6-(5-(1-ethyl-1H-pyrazol-4-yl)-1H-pyrazolo[3,4-c]pyridin-3-yl)pyridin-2-yl)piperidin-3-amine] yielded a Ki of 31 pM.
Under `NCC[C@H]1CCCN(c2cccc(-c3n[nH]c4cnc(-c5cccnc5)cc34)n2)C1` [Example 237, (R)-2-(1-(6-(5-(pyridin-3-yl)-1H-pyrazolo[3,4-c]pyridin-3-yl)pyridin-2-yl)piperidin-3-yl)ethanamine] stands 42 pM; under `c1cc(-c2n[nH]c3cnc(-c4cncs4)cc23)nc(N2CCNCC2)c1` [Example 359, 5-(3-(6-(piperazin-1-yl)pyridin-2-yl)-1H-pyrazolo[3,4-c]pyridin-5-yl)thiazole], 74 pM.
Compound `CCn1cc(-c2cc3c(-c4cc(OC)ccn4)n[nH]c3cn2)cn1` [Example 476, 5-(1-ethyl-1H-pyrazol-4-yl)-3-(4-methoxypyridin-2-yl)-1H-pyrazolo[3,4-c]pyridine] displayed a Ki of 15700 pM.
Under `Cc1n[nH]c2cnc(-c3cncc(N4CCC[C@@H](N)C4)n3)cc12` [Example 121, (R)-1-(6-(3-methyl-1H-pyrazolo[3,4-c]pyridin-5-yl)pyrazin-2-yl)piperidin-3-amine] stands 6910 pM; under `O=C1CN(c2cccc(-c3n[nH]c4cnc(-c5cccnc5)cc34)n2)CCCN1` [Example 322, 4-(6-(5-(pyridin-3-yl)-1H-pyrazolo[3,4-c]pyridin-3-yl)pyridin-2-yl)-1,4-diazepan-2-one], 322 pM; under `CN1CCN(c2nc(-c3n[nH]c4cnc(-c5cccnc5)cc34)ccc2Cl)CC1` [Example 255, 3-(5-chloro-6-(4-methylpiperazin-1-yl)pyridin-2-yl)-5-(pyridin-3-yl)-1H-pyrazolo[3,4-c]pyridine], 113 pM.
Under `Cn1cc(-c2cc3c(-c4ccnc(N5CCC[C@H](N)C5)n4)n[nH]c3cn2)cn1` [Example 365, (S)-1-(4-(5-(1-methyl-1H-pyrazol-4-yl)-1H-pyrazolo[3,4-c]pyridin-3-yl)pyrimidin-2-yl)piperidin-3-amine] stands 94.1 pM; under `c1cncc(-c2cc3c(-c4cn[nH]c4)n[nH]c3cn2)c1` [Example 156, 3-(1H-pyrazol-4-yl)-5-(pyridin-3-yl)-1H-pyrazolo[3,4-c]pyridine], 2310 pM; under `NCC1CCCCN1c1cccc(-c2n[nH]c3cnc(-c4cccnc4)cc23)n1` (stereo not shown) [Example 324, (1-(6-(5-(pyridin-3-yl)-1H-pyrazolo[3,4-c]pyridin-3-yl)pyridin-2-yl)piperidin-2-yl)methanamine], 296 pM.
Compound `Cc1cncc(-c2cc3c(-c4cccc(N5CCCNCC5)n4)n[nH]c3cn2)n1` [Example 522, 3-(6-(1,4-diazepan-1-yl)pyridin-2-yl)-5-(6-methylpyrazin-2-yl)-1H-pyrazolo[3,4-c]pyridine] displayed a Ki of 19 pM.
Under `NCC[C@@H]1CCCN(c2cccc(-c3n[nH]c4cnc(-c5cccnc5)cc34)n2)C1` [Example 242, (S)-2-(1-(6-(5-(pyridin-3-yl)-1H-pyrazolo[3,4-c]pyridin-3-yl)pyridin-2-yl)piperidin-3-yl)ethanamine] stands 30 pM.
Regarding `O=C1N(c2n[nH]c3cnc(-c4cccnc4)cc23)CCC12CCNCC2` [Example 295, 2-(5-(pyridin-3-yl)-1H-pyrazolo[3,4-c]pyridin-3-yl)-2,8-diazaspiro[4.5]decan-1-one], the Ki was 39900 pM. Compared with the last compound, the Ki is about 1300-fold higher.
On to `Fc1ccccc1-c1n[nH]c2cnc(-c3cnccc3OC[C@H]3CCNC3)cc12` [Example 211, (S)-3-(2-fluorophenyl)-5-(4-(pyrrolidin-3-ylmethoxy)pyridin-3-yl)-1H-pyrazolo[3,4-c]pyridine], for which the Ki came to 1280 pM.
The same measure for `C=C(C)c1ccnc(-c2n[nH]c3cnc(-c4cnn(CC)c4)cc23)c1` [Example 500, 5-(1-ethyl-1H-pyrazol-4-yl)-3-(4-(prop-1-en-2-yl)pyridin-2-yl)-1H-pyrazolo[3,4-c]pyridine]: 54100 pM; for `C=C(C)c1ccc(-c2n[nH]c3cnc(-c4cnn(CC)c4)cc23)nc1N1CCC[C@H](N)C1` [Example 427, (S)-1-(6-(5-(1-ethyl-1H-pyrazol-4-yl)-1H-pyrazolo[3,4-c]pyridin-3-yl)-3-(prop-1-en-2-yl)pyridin-2-yl)piperidin-3-amine]: 16 pM; for `Cc1n[nH]c2cnc(-c3cnn(C)c3)cc12` [Example 127, 3-methyl-5-(1-methyl-1H-pyrazol-4-yl)-1H-pyrazolo[3,4-c]pyridine]: 261000 pM.
Regarding `CN1CC(c2cc3c(-c4ccccc4)n[nH]c3cn2)CC1=O` (stereo not shown) [Example 263, 1-methyl-4-(3-phenyl-1H-pyrazolo[3,4-c]pyridin-5-yl)pyrrolidin-2-one], the Ki is 241000 pM. This Ki and that of the compound before are within 1.5-fold of each other.
Under `Cc1ccc(-c2n[nH]c3cnc(-c4cnn(C)c4)cc23)nc1N1CC(N2CCS(=O)(=O)CC2)C1` [Example 413, 4-(1-(3-methyl-6-(5-(1-methyl-1H-pyrazol-4-yl)-1H-pyrazolo[3,4-c]pyridin-3-yl)pyridin-2-yl)azetidin-3-yl)-1,1-dioxo thiomorpholine] stands 1020 pM; under `c1cc(-c2n[nH]c3cnc(-c4cnn(CC5COC5)c4)cc23)nc(N2CCNCC2)c1` [Example 416, 5-(1-(oxetan-3-ylmethyl)-1H-pyrazol-4-yl)-3-(6-(piperazin-l-yl)pyridin-2-yl)-1H-pyrazolo[3,4-c]pyridine], 11300 pM; under `Cn1cc(-c2n[nH]c3cnc(-c4cncc(N5CCC(N)CC5)n4)cc23)cn1` [Example 221, 1-(6-(3-(1-methyl-1H-pyrazol-4-yl)-1H-pyrazolo[3,4-c]pyridin-5-yl)pyrazin-2-yl)piperidin-4-amine], 96 pM.
Under `FCCn1cc(-c2cc3c(-c4cccc(N5CCCNCC5)n4)n[nH]c3cn2)cn1` [Example 489, 3-(6-(1,4-diazepan-1-yl)pyridin-2-yl)-5-(1-(2-fluoroethyl)-1H-pyrazol-4-yl)-1H-pyrazolo[3,4-c]pyridine] stands 14 pM; under `N[C@@H]1CCCN(c2nc(-c3n[nH]c4cnc(-c5cccnc5)cc34)ccc2Br)C1` [Example 290, (R)-1-(3-bromo-6-(5-(pyridin-3-yl)-1H-pyrazolo[3,4-c]pyridin-3-yl)pyridin-2-yl)piperidin-3-amine], 82 pM; under `Cn1ccc(-c2n[nH]c3cnc(-c4cncc(N5CCC(N)CC5)n4)cc23)n1` [Example 233, 1-(6-(3-(1-methyl-1H-pyrazol-3-yl)-1H-pyrazolo[3,4-c]pyridin-5-yl)pyrazin-2-yl)piperidin-4-amine], 51 pM.
The same measure for `c1cncc(-c2cc3c(C4CCCC4)n[nH]c3cn2)c1` [Example 228, 3-cyclopentyl-5-(pyridin-3-yl)-1H-pyrazolo[3,4-c]pyridine]: 43000 pM; for `NCCNc1cc(-c2n[nH]c3cnc(-c4cccnc4)cc23)ccn1` [Example 159, N1-(4-(5-(pyridin-3-yl)-1H-pyrazolo[3,4-c]pyridin-3-yl)pyridin-2-yl)ethane-1,2-diamine]: 941 pM; for `c1cncc(-c2cc3c(-c4cncc(NC5CCNCC5)c4)n[nH]c3cn2)c1` [Example 170, N-(piperidin-4-yl)-5-(5-(pyridin-3-yl)-1H-pyrazolo[3,4-c]pyridin-3-yl)pyridin-3-amine]: 443 pM.
`Cc1ccc(-c2n[nH]c3cnc(-c4cnn(C)c4)cc23)nc1N1CC(N2CCNC(=O)C2)C1` [Example 425, 4-(1-(3-methyl-6-(5-(1-methyl-1H-pyrazol-4-yl)-1H-pyrazolo[3,4-c]pyridin-3-yl)pyridin-2-yl)azetidin-3-yl)piperazin-2-one] came in with a Ki of 618 pM.
`Fc1ccccc1-c1n[nH]c2cnc(-c3cnc[nH]3)cc12` [Example 218, 3-(2-fluorophenyl)-5-(1H-imidazol-5-yl)-1H-pyrazolo[3,4-c]pyridine] showed a Ki of 30900 pM.
In the case of `NC(=O)Cn1cc(-c2cc3c(-c4cccc(F)n4)n[nH]c3cn2)cn1` [Example 178, 2-(4-(3-(6-fluoropyridin-2-yl)-1H-pyrazolo[3,4-c]pyridin-5-yl)-1H-pyrazol-1-yl)acetamide], the Ki was 17600 pM.
Under `c1ccc(-c2n[nH]c3cnc(-c4ccoc4)cc23)cc1` [Example 185, 5-(furan-3-yl)-3-phenyl-1H-pyrazolo[3,4-c]pyridine] stands 70900 pM; under `CCn1cc(-c2cc3c(-c4cccc(N5CCCC[C@@H](O)C5)n4)n[nH]c3cn2)cn1` [Example 502, (R)-1-(6-(5-(1-ethyl-1H-pyrazol-4-yl)-1H-pyrazolo[3,4-c]pyridin-3-yl)pyridin-2-yl)azepan-3-ol], 139 pM; under `CS(=O)(=O)c1cncc(-c2cc3c(-c4cccc(N5CCNCC5)n4)n[nH]c3cn2)c1` [Example 470, 5-(5-(methylsulfonyl)pyridin-3-yl)-3-(6-(piperazin-1-yl)pyridin-2-yl)-1H-pyrazolo[3,4-c]pyridine], 49 pM.
Under `C[C@@]1(N)CCCN(c2cccc(-c3n[nH]c4cnc(-c5cccnc5)cc34)n2)C1` [Example 347, (R)-3-methyl-1-(6-(5-(pyridin-3-yl)-1H-pyrazolo[3,4-c]pyridin-3-yl)pyridin-2-yl)piperidin-3-amine] stands 110 pM.
Under `c1cc(-c2n[nH]c3cnc(N4CCOCC4)cc23)nc(N2CCNCC2)c1` [Example 401, 4-(3-(6-(piperazin-1-yl)pyridin-2-yl)-1H-pyrazolo[3,4-c]pyridin-5-yl)morpholine] stands 3290 pM.
In the case of `CC(C)c1ccc(-c2n[nH]c3cnc(-c4cccnc4)cc23)nc1N1CCC[C@H](N)C1` [Example 328, (S)-1-(3-isopropyl-6-(5-(pyridin-3-yl)-1H-pyrazolo[3,4-c]pyridin-3-yl)pyridin-2-yl)piperidin-3-amine], the Ki was found to be 46 pM. This Ki lies about 72-fold lower than the previous one.
On to `OC1CCN(c2cccc(-c3n[nH]c4cnc(-c5cccnc5)cc34)n2)CC1` [Example 272, 1-(6-(5-(pyridin-3-yl)-1H-pyrazolo[3,4-c]pyridin-3-yl)pyridin-2-yl)piperidin-4-ol], for which the affinity corresponds to a Ki of 149 pM.

For the origin of these results see patent US9260425B2 (Genetech, Inc., priority 2011, dated 2016).
